Measured values from US7163946B2 (Ligand Pharmaceuticals Incorporated, priority 2002, dated 2007).
Where two headings read alike, the source gives them in different places.

Assays:
Assay type in all cases: cell-based
hPR [1] = target: T1, hPR (Homo sapiens, UniProt P06401); experiment: hPR cotransfection assay in CV-1 cells, agonist mode; conditions: for Emax: CV-1, CV-1 cells, relative to maximal response of progesterone as 100%, read-out: hPR Agonist CV-1 Cells Eff. (%)
T1 sequence (P06401 1-933): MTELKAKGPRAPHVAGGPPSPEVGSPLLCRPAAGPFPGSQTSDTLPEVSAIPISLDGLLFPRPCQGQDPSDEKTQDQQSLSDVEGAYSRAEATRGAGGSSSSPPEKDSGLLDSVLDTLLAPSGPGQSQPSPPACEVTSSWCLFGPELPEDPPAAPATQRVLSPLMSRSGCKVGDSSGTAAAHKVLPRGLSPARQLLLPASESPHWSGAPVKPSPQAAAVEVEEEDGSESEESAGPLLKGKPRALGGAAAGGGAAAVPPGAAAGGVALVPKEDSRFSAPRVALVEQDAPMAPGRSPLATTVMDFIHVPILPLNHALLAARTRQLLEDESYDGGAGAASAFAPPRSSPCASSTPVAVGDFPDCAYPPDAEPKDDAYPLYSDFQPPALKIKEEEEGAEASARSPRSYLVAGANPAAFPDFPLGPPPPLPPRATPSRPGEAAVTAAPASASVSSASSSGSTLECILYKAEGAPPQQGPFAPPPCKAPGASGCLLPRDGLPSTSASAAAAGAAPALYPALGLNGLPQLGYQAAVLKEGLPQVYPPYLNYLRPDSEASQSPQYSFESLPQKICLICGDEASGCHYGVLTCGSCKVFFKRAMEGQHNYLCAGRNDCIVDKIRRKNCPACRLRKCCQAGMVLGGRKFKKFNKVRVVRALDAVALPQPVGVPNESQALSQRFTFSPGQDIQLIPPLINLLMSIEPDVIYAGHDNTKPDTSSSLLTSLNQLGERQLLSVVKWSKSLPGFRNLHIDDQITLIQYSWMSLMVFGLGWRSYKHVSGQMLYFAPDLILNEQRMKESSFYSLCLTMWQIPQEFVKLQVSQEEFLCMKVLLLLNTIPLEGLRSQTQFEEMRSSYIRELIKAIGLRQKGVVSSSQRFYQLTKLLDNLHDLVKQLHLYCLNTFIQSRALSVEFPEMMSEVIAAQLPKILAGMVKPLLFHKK

hGR = target: T2, hGR (Homo sapiens, UniProt P04150); experiment: hGR cotransfection assay (potency ratio to hPR); conditions: receptor-selectivity potency ratio, cotransfection assays
T2 sequence (P04150 1-777): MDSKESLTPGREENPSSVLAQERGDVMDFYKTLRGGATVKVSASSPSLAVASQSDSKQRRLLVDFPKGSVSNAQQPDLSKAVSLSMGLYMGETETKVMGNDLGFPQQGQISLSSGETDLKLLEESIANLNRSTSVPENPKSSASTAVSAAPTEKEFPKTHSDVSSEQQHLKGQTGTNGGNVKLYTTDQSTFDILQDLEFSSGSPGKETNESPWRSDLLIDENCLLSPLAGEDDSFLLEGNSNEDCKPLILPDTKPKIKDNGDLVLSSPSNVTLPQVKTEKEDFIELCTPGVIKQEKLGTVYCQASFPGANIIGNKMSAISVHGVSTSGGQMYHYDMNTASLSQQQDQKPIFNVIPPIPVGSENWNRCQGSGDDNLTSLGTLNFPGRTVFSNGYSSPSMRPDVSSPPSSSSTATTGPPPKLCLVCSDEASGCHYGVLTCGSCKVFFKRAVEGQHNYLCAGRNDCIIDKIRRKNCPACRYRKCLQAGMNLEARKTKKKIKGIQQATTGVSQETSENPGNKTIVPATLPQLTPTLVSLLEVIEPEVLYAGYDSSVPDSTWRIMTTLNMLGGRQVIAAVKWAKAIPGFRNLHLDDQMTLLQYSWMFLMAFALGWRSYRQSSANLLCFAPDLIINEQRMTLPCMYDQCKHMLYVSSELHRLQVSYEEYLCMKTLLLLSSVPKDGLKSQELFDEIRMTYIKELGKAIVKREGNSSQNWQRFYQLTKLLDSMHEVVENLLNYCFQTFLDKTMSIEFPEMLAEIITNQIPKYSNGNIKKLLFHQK

[2] = target: T3, human estrogen receptor (hER) (Homo sapiens, UniProt P03372); experiment: hER cotransfection assay (potency ratio to hPR); conditions: receptor-selectivity potency ratio, cotransfection assays
T3 sequence (P03372 1-595): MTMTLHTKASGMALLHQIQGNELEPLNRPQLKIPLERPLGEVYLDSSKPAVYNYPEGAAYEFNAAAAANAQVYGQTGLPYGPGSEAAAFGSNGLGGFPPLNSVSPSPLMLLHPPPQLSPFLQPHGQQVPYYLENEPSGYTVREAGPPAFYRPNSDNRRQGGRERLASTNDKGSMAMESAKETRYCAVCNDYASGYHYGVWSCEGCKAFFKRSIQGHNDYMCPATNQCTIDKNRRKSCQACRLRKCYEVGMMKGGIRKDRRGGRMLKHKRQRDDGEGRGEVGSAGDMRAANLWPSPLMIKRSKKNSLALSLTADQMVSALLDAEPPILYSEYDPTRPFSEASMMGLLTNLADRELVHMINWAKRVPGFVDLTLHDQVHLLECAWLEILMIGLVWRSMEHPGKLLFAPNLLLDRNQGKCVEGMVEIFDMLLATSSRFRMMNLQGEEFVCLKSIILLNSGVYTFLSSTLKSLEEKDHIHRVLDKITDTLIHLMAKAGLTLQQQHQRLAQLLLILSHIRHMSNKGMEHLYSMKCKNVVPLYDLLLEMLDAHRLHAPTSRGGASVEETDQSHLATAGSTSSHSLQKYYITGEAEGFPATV

hPR [3] = target: T1, hPR; experiment: hPR cotransfection assay in CV-1 cells, antagonist mode; conditions: for Emax: CV-1, CV-1 cells, maximal inhibition of reference agonist at EC50 concentration, read-out: hPR Antagonist CV-1 Cells Eff. (%); for IC50: CV-1 cells
[4] = CV-1 cells, read-out: hPR Agonist CV-1 Cells EC50
[5] = Tables 3 and 4, values without footnote, read-out: hPR agonist potencies (EC50 in nM) in the cotransfection assay

Emax (hPR [1]) [%]	EC50 (hPR [1]; [4]) [nM]	EC50 (hPR [1]; [5]) [nM]	hGR EC50 or IC50/hPR EC50 (hGR)	hER EC50 or IC50/hPR EC50 [2]	Emax (hPR [3]) [%]	IC50 (hPR [3]) [nM]	SMILES
159	0.6	0.6	342	>1000	< 20	> 10000	COc1ccc(F)cc1/C=C1\Oc2c(F)cc(F)cc2-c2ccc3c(c21)C(C)=CC(C)(C)N3 [Compound 26, 7,9-difluoro-5(Z)-(2-methoxy-5-fluorobenzylidene)-1,2-dihydro-2,2,4-trimethyl-5H-chromeno[3,4-f]quinoline]
191	2.3		83	>1000	< 20	> 10000	CC1=CC(C)(C)Nc2ccc3c(c21)/C(=C/Br)Oc1c(F)cc(F)cc1-3 [Compound 29, 7,9-difluoro-5(Z)-bromomethylidene-1,2-dihydro-2,2,4-trimethyl-5H-chromeno[3,4-f]quinoline]
186	5.3		19	>1000	< 20	> 10000	CC1=CC(C)(C)Nc2ccc3c(c21)/C(=C/c1ccsc1)Oc1c(F)cc(F)cc1-3 [Compound 30, 7,9-difluoro-5(Z)-(3-thienylmethylidene)-1,2-dihydro-2,2,4-trimethyl-5H-chromeno[3,4-f]quinoline]
171	2.7	2.7	59	>1000	< 20	> 10000	CC1=CC(C)(C)Nc2ccc3c(c21)/C(=C/c1cccs1)Oc1c(F)cc(F)cc1-3 [Compound 31, 7,9-difluoro-5(Z)-(2-thienylmethylidene)-1,2-dihydro-2,2,4-trimethyl-5H-chromeno[3,4-f]quinoline]
